From ChEMBL document CHEMBL5331051, “Cationic, amphipathic small molecules based on a triazine-piperazine-triazine scaffold as a new class of antimicrobial agents” (Eur J Med Chem, 2022)
Values after ≈ are worked out from the molar mass of the structure shown. Active and inactive are the calls of the source. The rule behind the calls is not given here.

Tests used:
[1] = test system: Pseudomonas aeruginosa; test: Synergistic antibacterial activity against multidrug-resistant Pseudomonas aeruginosa CCARM 2095 strain assessed as chloramphenicol fractional inhibitory concentration by checkerboard assay; assay type: functional
[2] = test system: Cell membrane; test: Induction of outer membrane permeabilization in Escherichia coli KCTC 1682 assessed as increase in fluorescence intensity at 2 to 8 ug/ml by NPN staining based analysis; details: dose 2-8 µg/ml
[3] = test system: Staphylococcus aureus; test: Synergistic antibacterial activity against multidrug-resistant Staphylococcus aureus CCARM 3089 strain assessed as fractional inhibitory concentration index in presence of ciprofloxacin by checkerboard assay; assay type: functional
[4] = test system: Escherichia coli; test: Antibacterial activity against Escherichia coli KCTC 1682 strain assessed as bacterial growth inhibition measured at 18 to 24 hrs in presence of 6 uM NH4Cl by microdilution assay; assay type: functional; details: time 18-24 hrs
[5] = test system: RAW264.7; test: Antiinflammatory activity in LPS-induced mouse RAW264.7 cells assessed as reduction in NO production at 5 ug/ml measured after 72 hrs by ELISA assay relative to control; assay type: functional
[6] = test system: Pseudomonas aeruginosa; test: Synergistic antibacterial activity against multidrug-resistant Pseudomonas aeruginosa CCARM 2095 strain assessed as chloramphenicol fractional inhibitory concentration in presence of chloramphenicol by checkerboard assay; assay type: functional
[7] = test system: Pseudomonas aeruginosa; test: Antibiofilm activity against multidrug-resistant Pseudomonas aeruginosa assessed as inhibition of biofilm formation; assay type: functional
[8] = test system: RAW264.7; test: Antiinflammatory activity in LPS-induced mouse RAW264.7 cells assessed as reduction in iNOS mRNA expression level at 5 ug/ml measured after 18 hrs by RT-PCR assay relative to control; assay type: functional, cell-based; details: dose 5.0 µg/ml
[9] = test system: Pseudomonas aeruginosa; test: Synergistic antibacterial activity against multidrug-resistant Pseudomonas aeruginosa CCARM 2095 strain assessed as fractional inhibitory concentration index in presence of oxacillin by checkerboard assay; assay type: functional
[10] = test system: Escherichia coli; test: Antibacterial activity against Escherichia coli KCTC 1682 strain assessed as bacterial growth inhibition measured at 18 to 24 hrs in presence of 20% human serum by microdilution assay; assay type: functional; details: time 18-24 hrs
[11] = test system: Staphylococcus aureus; test: Synergistic antibacterial activity against methicillin-resistant Staphylococcus aureus CCARM 3089 strain assessed as bacterial growth inhibition in presence of ciprofloxacin by checkerboard assay; assay type: functional
[12] = test system: Cell membrane; test: Induction of cell membrane depolarization in Staphylococcus aureus assessed as increase in fluorescence intensity at 2 times MIC by SYTOX green staining based analysis
[13] = test system: Staphylococcus aureus; test: Antibacterial activity against Staphylococcus aureus KCTC 1621 strain assessed as bacterial growth inhibition measured at 18 to 24 hrs in presence of 4 uM FeCl3 by microdilution assay; assay type: functional; details: time 18-24 hrs
[14] = test system: Pseudomonas aeruginosa; test: Synergistic antibacterial activity against multidrug-resistant Pseudomonas aeruginosa CCARM 2095 strain assessed as bacterial growth inhibition in presence of ciprofloxacin by checkerboard assay; assay type: functional
[15] = test system: Pseudomonas aeruginosa; test: Synergistic antibacterial activity against multidrug-resistant Pseudomonas aeruginosa CCARM 2095 strain assessed as bacterial growth inhibition in presence of chloramphenicol by checkerboard assay; assay type: functional
[16] = test system: Staphylococcus aureus; test: Antibacterial activity against Staphylococcus aureus KCTC 1621 strain assessed as bacterial growth inhibition measured at 18 to 24 hrs in presence of 150 mM NaCl by microdilution assay; assay type: functional; details: time 18-24 hrs
[17] = test system: Staphylococcus aureus; test: Additive antibacterial activity against multidrug-resistant Staphylococcus aureus CCARM 3089 strain assessed as ciprofloxacin fractional inhibitory concentration by checkerboard assay; assay type: functional
[18] = test system: Staphylococcus aureus; test: Antibacterial activity against Staphylococcus aureus KCTC 1621 strain assessed as bacterial growth inhibition measured at 18 to 24 hrs in presence of 4.5 mM KCl by microdilution assay; assay type: functional; details: time 18-24 hrs
[19] = test system: Staphylococcus epidermidis; test: Antibacterial activity against Staphylococcus epidermidis KCTC 1917 strain assessed as bacterial growth inhibition measured at 18 to 24 hrs by microdilution assay; assay type: functional; details: time 18-24 hrs
[20] = test system: Lipopolysaccharide (LPS); test: Displacement of BODIPY-TR-cadaverine from Escherichia coli O111:B4 lipopolysaccharide assessed as increase in fluorescence at 5 ug/ml by fluorescence based assay relative to control; details: dose 5.0 µg/ml
[21] = test system: Staphylococcus aureus; test: Synergistic antibacterial activity against methicillin-resistant Staphylococcus aureus CCARM 3089 strain assessed as oxacillin MIC by checkerboard assay; assay type: functional
[22] = test system: Staphylococcus aureus; test: Antibacterial activity against Staphylococcus aureus KCTC 1621 strain assessed as bacterial growth inhibition measured at 18 to 24 hrs in presence of 6 uM NH4Cl by microdilution assay; assay type: functional; details: time 18-24 hrs
[23] = test system: Pseudomonas aeruginosa; test: Synergistic antibacterial activity against multidrug-resistant Pseudomonas aeruginosa CCARM 2095 strain assessed as oxacillin MIC by checkerboard assay; assay type: functional
[24] = test system: Pseudomonas aeruginosa; test: Antibiofilm activity against multidrug-resistant Pseudomonas aeruginosa assessed as biofilm eradication; assay type: functional
[25] = test system: RAW264.7; test: Antiinflammatory activity in LPS-induced mouse RAW264.7 cells assessed as reduction in TNF alpha level at 20 ug/ml measured after 72 hrs by ELISA assay relative to control; assay type: functional
[26] = test system: Erythrocyte; test: Hemolytic activity in sheep RBC assessed as minimal hemolytic concentration causing 10% hemolysis incubated for 1 hr by ELISA; assay type: toxicity, cell-based, Ovis aries
[27] = test system: RAW264.7; test: Antiinflammatory activity in LPS-induced mouse RAW264.7 cells assessed as reduction in TNF alpha mRNA expression level at 20 ug/ml measured after 18 hrs by RT-PCR assay relative to control; assay type: functional, cell-based; details: dose 20.0 µg/ml
[28] = test system: Staphylococcus aureus; test: Antibacterial activity against Staphylococcus aureus KCTC 1621 strain assessed as bacterial growth inhibition measured at 18 to 24 hrs in presence of 1 mM MgCl2 by microdilution assay; assay type: functional; details: time 18-24 hrs
[29] = test system: Pseudomonas aeruginosa; test: Synergistic antibacterial activity against multidrug-resistant Pseudomonas aeruginosa CCARM 2095 strain assessed as ciprofloxacin fractional inhibitory concentration by checkerboard assay; assay type: functional
[30] = test system: Pseudomonas aeruginosa; test: Synergistic antibacterial activity against multidrug-resistant Pseudomonas aeruginosa CCARM 2095 strain assessed as ciprofloxacin fractional inhibitory concentration in presence of ciprofloxacin by checkerboard assay; assay type: functional
[31] = test system: Staphylococcus aureus; test: Synergistic antibacterial activity against methicillin-resistant Staphylococcus aureus CCARM 3089 strain assessed as fractional inhibitory concentration in presence of ciprofloxacin by checkerboard assay; assay type: functional
[32] = test system: Escherichia coli; test: Antibacterial activity against Escherichia coli KCTC 1682 strain assessed as bacterial growth inhibition measured after 6 hrs in presence of pepsin by radial diffusion assay; assay type: functional, organism-based
[33] = test system: Escherichia coli; test: Antibacterial activity against Escherichia coli KCTC 1682 strain assessed as bacterial growth inhibition measured after 6 hrs in presence of proteinase K by radial diffusion assay; assay type: functional, organism-based
[34] = test system: Pseudomonas aeruginosa; test: Synergistic antibacterial activity against multidrug-resistant Pseudomonas aeruginosa CCARM 2095 strain assessed as oxacillin fractional inhibitory concentration by checkerboard assay; assay type: functional
[35] = test system: Escherichia coli; test: Antibacterial activity against Escherichia coli KCTC 1682 strain assessed as bacterial growth inhibition measured at 18 to 24 hrs in presence of 150 mM NaCl by microdilution assay; assay type: functional; details: time 18-24 hrs
[36] = test system: Cell membrane; test: Induction of cell membrane depolarization in Staphylococcus aureus assessed as fluorescence intensity at 2 to 16 times MIC by DiSC3(5) dye based fluorescence assay; assay type: subcellular
[37] = test system: Staphylococcus aureus; test: Additive antibacterial activity against methicillin-resistant Staphylococcus aureus CCARM 3089 strain assessed as chloramphenicol MIC by checkerboard assay; assay type: functional

| Structure (SMILES) | Activity [2] | MIC [4] | inhibition at 5 µg/mL [5] | Activity [8] | MIC [10] | Activity [12] | MIC [13] | MIC [14] | MIC [16] | MIC [18] | MIC [19] | MIC [22] | inhibition at 20 µg/mL [25] | MHC [26] | Activity [27] | MIC [28] | Activity [32] | Activity [33] | MIC [35] | Activity [36] | further results |
| --- | --- | --- | --- | --- | --- | --- | --- | --- | --- | --- | --- | --- | --- | --- | --- | --- | --- | --- | --- | --- | --- |
| NCCCN(CCCN)c1nc(NCc2ccccc2)nc(N2CC(Cc3ccccc3)N(c3nc(NCc4ccccc4)nc(N(CCCN)CCCN)n3)CC2Cc2ccccc2)n1 (stereo not given) | inactive | 5 µM | 75.7% | Active | 10 µM | inactive | 5 µM | 4 µg/mL | 2.5 µM | 2.5 µM | 5 µM (≈ 4.47 µg/mL) | 5 µM | 95.4% | > 318.5 µM | Active | 10 µM | Active | Active | 2.5 µM | inactive | FIC [1]: 0.125; fractional inhibitory concentration index (FICI) [3]: 0.375; FIC [6]: 0.25; MBEC50 [7]: 10 µM; MBEC90 [7]: 39.8 µM; MBIC [7]: 10 µM; MBIC50 [7]: 5 µM; fractional inhibitory concentration index (FICI) [9]: 0.5; MIC [11]: 1 µg/mL; MIC [15]: 4 µg/mL; FIC [17]: 0.125; Activity [20]: > 50%; MIC [21]: 128 µg/mL; MIC [23]: 256 µg/mL; MBEC50 [24]: 10 µM; MBEC90 [24]: 39.8 µM; FIC [29]: 0.063; FIC [30]: 0.25; FIC [31]: 0.25; FIC [34]: 0.25 |
| NCCN(CCN)c1nc(NCc2ccccc2)nc(N2CC(Cc3ccccc3)N(c3nc(NCc4ccccc4)nc(N(CCN)CCN)n3)CC2Cc2ccccc2)n1 (stereo not given) | inactive | 5.4 µM |  | Active | 5.4 µM | inactive | 5.4 µM | 2 µg/mL | 5.4 µM | 5.4 µM | 2.7 µM (≈ 2.26 µg/mL) | 5.4 µM | 95.6% | > 342.5 µM | Active | 5.4 µM | Active | Active | 5.4 µM | inactive | FIC [1]: 0.25; fractional inhibitory concentration index (FICI) [3]: 0.375; FIC [6]: 0.25; MBEC50 [7]: 10.4 µM; MBEC90 [7]: 10.4 µM; MBIC [7]: 5.2 µM; MBIC50 [7]: 1.3 µM; fractional inhibitory concentration index (FICI) [9]: 0.375; MIC [11]: 1 µg/mL; MIC [15]: 4 µg/mL; FIC [17]: 0.125; Activity [20]: 75%; MIC [21]: 256 µg/mL; MIC [23]: 128 µg/mL; MBEC50 [24]: 10.4 µM; MBEC90 [24]: 10.4 µM; FIC [29]: 0.25; FIC [30]: 0.125; FIC [31]: 0.25; FIC [34]: 0.125 |
| N=C(N)NCCNc1nc(NCCNC(=N)N)nc(N2CC(Cc3ccccc3)N(c3nc(NCCNC(=N)N)nc(NCCNC(=N)N)n3)CC2Cc2ccccc2)n1 (stereo not given) | inactive | 9.7 µM | 68.1% | Active | 9.7 µM | inactive | 9.6 µM |  | 4.8 µM | 4.8 µM | 4.8 µM (≈ 3.96 µg/mL) | 4.8 µM | 99.8% | > 309.8 µM | Active | 9.6 µM | Active | Active | 9.7 µM | inactive | Activity [20]: > 50%; MIC [37]: 128 µg/mL |
| NCCNc1nc(NCCN)nc(N2CC(Cc3ccccc3)N(c3nc(NCCN)nc(NCCN)n3)CC2Cc2ccccc2)n1 (stereo not given) | inactive | 6.1 µM | 31.5% | Active | 12.2 µM | inactive | 6.1 µM | 4 µg/mL | 6.1 µM | 6.1 µM | 6.1 µM (≈ 4.01 µg/mL) | 6.1 µM | 72.4% | > 389.1 µM | Active | 6.1 µM | Active | Active | 6.1 µM | inactive | MBEC50 [7]: 24.3 µM; MBEC90 [7]: 97.3 µM; MBIC [7]: 24.3 µM; MBIC50 [7]: 3 µM; MIC [21]: 256 µg/mL; MBEC50 [24]: 24.3 µM; MBEC90 [24]: 97.3 µM; FIC [29]: 0.25; FIC [30]: 0.25; MIC [37]: 128 µg/mL |
| NCCCCNc1nc(NCCCCN)nc(N2CC(Cc3ccccc3)N(c3nc(NCCCCN)nc(NCCCCN)n3)CC2Cc2ccccc2)n1 (stereo not given) | inactive | 10.4 µM | 72.6% | Active | 10.4 µM | inactive | 20.8 µM | 8 µg/mL | 5.2 µM | 5.2 µM | 5.2 µM (≈ 4 µg/mL) | 5.2 µM | 97.2% | > 332.8 µM | Active | 5.2 µM | Active | Active | 10.4 µM | inactive | FIC [1]: 0.125; fractional inhibitory concentration index (FICI) [3]: 0.375; FIC [6]: 0.25; fractional inhibitory concentration index (FICI) [9]: 0.5; MIC [11]: 1 µg/mL; MIC [15]: 8 µg/mL; FIC [17]: 0.125; Activity [20]: > 50%; MIC [21]: 256 µg/mL; MIC [23]: 256 µg/mL; FIC [29]: 0.125; FIC [30]: 0.25; FIC [31]: 0.25; FIC [34]: 0.25; MIC [37]: 64 µg/mL |
